Data on eleven molecules can be found in patent US10226509B2, “Lymphangiogenesis inhibitors for cancer and for graft survival” (TUFTS UNIVERSITY, priority 2014, dated 2019).

Like-named read-outs stand apart in the source and are kept apart here.

The subject of assay [1] is Gal-8-induced LEC sprouting. The experiment in a line: LEC sprouting assay: Gal-8-induced sprouting with inhibitors or knockdown. The class given is cell-based, human. As for the experimental part:
LEC spheroids were generated by seeding primary LECs at passage 4 or 5 in each well of 384-well hanging-drop plates (3D Biomatrix) in complete EGM-2 MV medium containing 0.25% methyl cellulose according to the manufacturer's instructions (750 cells/well). After 18 hours, LEC spheroids were collected, resuspended in serum-free EBM-2 basal medium, and mixed with collagen solution (PureCol collagen, Advanced BioMatrix, 2.2 mg/ml in M199 medium, pH adjusted to 7.4 with NaHCO3 and NaOH). Aliquots of the LEC spheroid/collagen mixture (250 μl/well of 48-well plate) were incubated in the presence or absence of various test agents for 24 hr. At the end of the incubation period, spheroids were stained with Calcein AM (Invitrogen, 1 μg/mL, 37° C., and 30 min). Fluorescent images were acquired using the EVOS FL cell imaging system, pixels were inverted for better visualization and cumulative length of each sprout was calculated. Results were expressed as fold change compared to corresponding controls. […] Test agents used included thiodigalactoside (10 to 50 mM, Carbosynth), 3′-sialyl lactose (2 to 10 mM, Carbosynth), 6′-sialyl lactose (2 to 10 mM, Carbosynth), LY294002 (20 μM, Abeam), U0126 (20 μM, Abeam), PD0325901 (1 μM, Selleckchem), human VEGFR-3-Fc chimera (10 μg/ml, R&D), human VEGFR-2-Fc chimera (10 μg/ml, R&D), Avastin (10 μg/ml, bevacizumab, Genentech/Roche), human control IgG (10 μg/ml, Southern Biotech), anti-human podoplanin functional grade antibody (10 μg/ml, eBioscience), and rat IgG2a κ isotype control functional grade antibody (10 μg/ml, eBioscience).
To determine the role of these pathways on Gal-8-induced lymphangiogenesis, LEC spheroids were stimulated with Gal-8 (0.75 μM) in the presence or absence of PI3K inhibitor (LY294002, 20 μM) and two different MEK inhibitors (U0126, 20 μM; PD0325901, 1 μM). After overnight treatment with Gal-8, accumulated sprout lengths were quantified.

For assay [2], the system named is VEGF-C-induced LEC sprouting. The experiment in a line: LEC sprouting assay: VEGF-C-induced sprouting. Format: cell-based, human. The settings on record: VEGF-C 50 ng/ml, 24 h. As to the method:
(§1) LEC spheroids were generated by seeding primary LECs at passage 4 or 5 in each well of 384-well hanging-drop plates (3D Biomatrix) in complete EGM-2 MV medium containing 0.25% methyl cellulose according to the manufacturer's instructions (750 cells/well). After 18 hours, LEC spheroids were collected, resuspended in serum-free EBM-2 basal medium, and mixed with collagen solution (PureCol collagen, Advanced BioMatrix, 2.2 mg/ml in M199 medium, pH adjusted to 7.4 with NaHCO3 and NaOH). Aliquots of the LEC spheroid/collagen mixture (250 μl/well of 48-well plate) were incubated in the presence or absence of various test agents for 24 hr. At the end of the incubation period, spheroids were stained with Calcein AM (Invitrogen, 1 μg/mL, 37° C., and 30 min). Fluorescent images were acquired using the EVOS FL cell imaging system, pixels were inverted for better visualization and cumulative length of each sprout was calculated. Results were expressed as fold change compared to corresponding controls. It was observed that sprout lengths vary from passages to passages. Test agents used included thiodigalactoside (10 to 50 mM, Carbosynth), 3′-sialyl lactose (2 to 10 mM, Carbosynth), 6′-sialyl lactose (2 to 10 mM, Carbosynth), LY294002 (20 μM, Abeam), U0126 (20 μM, Abeam), PD0325901 (1 μM, Selleckchem), human VEGFR-3-Fc chimera (10 μg/ml, R&D), human VEGFR-2-Fc chimera (10 μg/ml, R&D), Avastin (10 μg/ml, bevacizumab, Genentech/Roche), human control IgG (10 μg/ml, Southern Biotech), anti-human podoplanin functional grade antibody (10 μg/ml, eBioscience), and rat IgG2a κ isotype control functional grade antibody (10 μg/ml, eBioscience).
In this assay, the LEC spheroids were treated with VEGF-C (50 ng/ml) in the presence or absence of 0.75 μM of Gal-8 for 24 hours, and then accumulated sprout lengths were quantified. […] Synergistic effect of Gal-8 on VEGF-C-induced LEC sprouting was dose-dependent. […] At concentrations >0.5 μM Gal-8, there was no further increase in the degree of VEGF-C-induced lymphangiogenesis (FIG. 4C).
To further characterize the role of carbohydrate-mediated recognition in VEGF-C-induced lymphangiogenesis, LEC spheroids were stimulated with VEGF-C (50 ng/ml) in the presence or absence of three different galectin inhibitors. […] Therefore, the data establishes the critical role of Gal-8-mediated carbohydrate-mediated recognition in VEGF-C-induced lymphangiogenesis.

The subject of assay [3] is VEGFR-3. In words: Affinity precipitation assay, VEGFR-3. Format: binding, human. The settings on record: 0.1 M sugar. As for the experimental part: (§2) Five mg of plant lectins (Vector Labs) and galectins were conjugated to 330 mg of Pierce® NHS-activated agarose dry resin in accordance with the manufacturer's instructions (Thermo Scientific). Primary LECs (Lonza) were lysed in Triton lysis buffer (20 mM Tris-HCl, pH 7.4; 150 mM NaCl; 0.5% Triton X-100 with protease inhibitor cocktail). LEC lysates (250 μg in 500 μL lysis buffer supplemented with 10 mM MgCl2) were incubated with 40 μL (50% slurry) of agarose-conjugated lectins (4° C., overnight). Beads were pelleted by centrifugation at 3000 rpm for 1 min. Non-specific binding proteins were removed by washing the beads with Triton lysis buffer once and PBS twice. Supernatants were discarded; bound proteins were eluted by boiling the beads with 20 μL of 2× Laemmli sample buffer for 7 min, and examined by western blotting.
Next, a series of examples were performed to determine whether VEGF-C-induced lymphangiogenesis is dependent on Gal-8. To determine whether VEGFR-3 is a Gal-8-binding protein, LEC lysates were incubated with Gal-8-conjugated agarose beads in the presence or absence of 0.1 M of lactose (an inhibiting sugar) or sucrose (a non-inhibiting sugar). Bound proteins were examined and were compared to total cell lysates (input) by western blot using anti-VEGFR-3 antibody. Three forms of VEGFR-3 (125 kDa, 175 kDa and 195 kDa) were detected in total cell lysates (FIG. 5A) (Bando, H., et al. 2004. Int J Cancer 111:184-191.). […] Having shown that Gal-8 binds to VEGFR-3 in LECs and that the carbohydrate-binding activity of Gal-8 is required for the synergistic effect of Gal-8 on VEGF-C-induced LEC sprouting, it was of interest to determine whether VEGFR-3 bears 3′-sialylated glycans.

Assay [4] has as its target T1, PDPN (Homo sapiens, UniProt Q86YL7).
T1 construct: Within the whole cell lysate, an anti-PDPN-reactive 43-kDa component was detected; host or cells: primary lymphatic endothelial cells (LECs)
T1 sequence (Q86YL7 23-162): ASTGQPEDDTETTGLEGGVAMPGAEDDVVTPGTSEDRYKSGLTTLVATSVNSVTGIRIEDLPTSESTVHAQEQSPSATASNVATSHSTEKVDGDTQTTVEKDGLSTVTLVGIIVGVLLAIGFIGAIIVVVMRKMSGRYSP
The experiment in a line: Affinity precipitation assay, PDPN. Format: binding. The note with it: for binding of PDPN (in words): galectin-conjugated agarose beads, LEC lysates. As to the method:
as §2
To determine whether PDPN binds to Gal-8 in a carbohydrate-dependent manner, LEC lysates were incubated with Gal-8-conjugated to agarose beads in the presence or absence of 0.1 M of lactose (an inhibiting sugar) or sucrose (a non-inhibiting sugar). Bound proteins were examined with total cell lysates (input) by western blot using an anti-PDPN antibody. To determine specificity of PDPN binding to Gal-8, LEC lysates were also incubated with agarose beads conjugated to Gal-1, Gal-3 and Gal-7. Within the whole cell lysate, an anti-PDPN-reactive 43-kDa component was detected (FIG. 7A).

Assay [5] relates to LEC spheroids. In words: LEC sprouting assay: stimulation by galectins alone. The class given is cell-based, human. The settings on record: 24 hours. As for the experimental part: as §1
To assess the effect of galectins on LEC sprouting, LEC spheroids were embedded in a collagen matrix and incubated with media containing various test agents. After 24 hours, the cumulative length of the sprouts for each spheroid was quantified by ImageJ. […] Multiple approaches were used to determine whether the stimulatory effect of Gal-8 on LEC sprouting was carbohydrate-dependent.

[6] abbreviates: Gal-8 0.75 μM, 24 h, TDG 20 mM, LY294002 20 μM, U0126 20 μM, PD0325901 1 μM, Avastin 10 μg/ml, Obtustatin 4 μM, antibodies 20 μg/ml, siRNA-transfected LECs.

Consider `CC(=O)N[C@H]1[C@H]([C@H](O)[C@H](O)CO)O[C@@](O[C@H]2[C@@H](O)[C@@H](CO)O[C@@H](O[C@H]3[C@H](O)[C@@H](O)C(O)O[C@@H]3CO)[C@@H]2O)(C(=O)O)C[C@@H]1O` (stereo partly drawn) [3′-SL, 3′-sialyllactose], for which the “inhibition of Gal-8-induced LEC sprouting” value in assay [1] (at 2 mM concentration) was determined as 95%. Also, the “nH of inhibition of galectin-8-mediated LEC sprouting” value in assay [1] (galectin-8 at 0.75 μM) is on record as 3.38. For the same molecule, in assay [1] (galectin-8 at 0.75 μM, read-out: IC50 of the inhibitory effect on galectin-8-mediated LEC sprouting), the IC50 (in general, the point on the concentration scale where inhibition reaches its midpoint) is 1.25 mM. The Ki in assay [1] (galectin-8 at 0.75 μM, read-out: Ki (Ki=IC50/(1+[A]/EC50))) was found to be 1.67 mM. The “effect on VEGF-C-induced LEC sprouting (in words)” value in assay [2] is listed as “inhibited”.

For `CC(=O)N[C@H]1[C@H]([C@H](O)[C@H](O)CO)O[C@@](OC[C@H]2O[C@@H](O[C@H]3[C@H](O)[C@@H](O)[C@H](O)O[C@@H]3CO)[C@H](O)[C@@H](O)[C@H]2O)(C(=O)O)C[C@@H]1O` [6′-SL, 6′-sialyl lactose], the “effect on Gal-8-induced LEC sprouting (in words)” value in assay [1] (setting [6]) is recorded as “had no effect”.

As to `O=C(NOC[C@H](O)CO)c1ccc(F)c(F)c1Nc1ccc(I)cc1F` [PD0325901], the “effect on Gal-8-induced LEC sprouting (in words)” value in assay [1] (setting [6]) is “markedly inhibited”.

On to `N#CC(=C(/N)Sc1ccccc1N)/C(C#N)=C(\N)Sc1ccccc1N` [U0126], for which the “effect on Gal-8-induced LEC sprouting (in words)” value in assay [1] is reported as “markedly inhibited”.

With `OC[C@H]1O[C@@H](O[C@H]2[C@H](O)[C@@H](O)C(O)O[C@@H]2CO)[C@H](O)[C@@H](O)[C@H]1O` (stereo partly drawn) [lactose, reference compound], the “inhibition of binding of VEGFR-3 to Gal-8” value in assay [3] is recorded as “inhibited”. Besides, the “inhibition of binding of PDPN to Gal-8” value in assay [4] (0.1 M sugar) is on record as “inhibited”.

Take Gal-1: recombinant galectin-1: in assay [5], the “promotion of LEC sprouting by the agent alone (in words)” value (“promotion of LEC sprouting” for short) is recorded as “not Gal-1, Gal-3 or Gal-7, promotes LEC sprouting”. Further, the “effect on VEGF-C-induced LEC sprouting (in words)” value in assay [2] is “did not potentiate”. Besides, in assay [4], the “binding of PDPN (in words)” value is “does not bind”.

For the molecule Gal-3: recombinant galectin-3, in assay [5], the “promotion of LEC sprouting” value is given as “not Gal-1, Gal-3 or Gal-7, promotes LEC sprouting”. In assay [2], the “effect on VEGF-C-induced LEC sprouting (in words)” value is reported as “did not potentiate”. For the same molecule, the “binding of PDPN (in words)” value in assay [4] is on record as “does not bind”.

In the case of Gal-7: recombinant galectin-7, the “promotion of LEC sprouting” value in assay [5] is “not Gal-1, Gal-3 or Gal-7, promotes LEC sprouting”. For the same molecule, the “effect on VEGF-C-induced LEC sprouting (in words)” value in assay [2] was “did not potentiate”. In addition, the “binding of PDPN (in words)” value in assay [4] is recorded as “does not bind”.

Turning to “Gal-8Q47A: Gal-8 mutant which has lost its ability to bind to α2,3-sialylated glycans”, in assay [5], the “promotion of LEC sprouting” value was “not promote lymphangiogenesis”.

As to “Obtustatin: a blocking peptide against integrin α1β1 (CTTGPCCRQCKLKPAGTTCWKTSLTSHYCTGKSCDCPLYPG) [reference compound]”, the “effect on Gal-8-induced LEC sprouting (in words)” value in assay [1] (setting [6]) was “inhibited”. Further, the “effect on VEGF-C-induced LEC sprouting (in words)” value in assay [2] is “inhibited”.

B1: VEGFR-3-Fc: human VEGFR-3-Fc chimera (protein)
chain: YSMTPPTLNITEESHVIDTGDSLSISCRGQHPLEWAWPGAQEAPATGDKDSEDTGVVRDCEGTDARPYCKVLLLHEVHANDTGSYVCYYKYIKARIEGTTAASSYVFVRDFEQPFINKPDTLLVNRKDAMWVPCLVSIPGLNVTLRSQSSVLWPDGQEVVWDDRRGMLVSTPLLHDALYLQCETTWGDQDFLSNPFLVHITGNELYDIQLLPRKSLELLVGEKLVLNCTVWAEFNSGVTFDWDYPGKQAERGKWVPERRSQQTHTELSSILTIHNVSQHDLGSYVCKANNGIQRFRESTEVIVHENPFISVEWLKGPILEATAGDELVKLPVKLAAYPPPEFQWYKDGKALSGRHSPHALVLKEVTEASTGTYTLALWNSAAGLRRNISLELVVNVPPQIHEKEASSPSIYSRHSRQALTCTAYGVPLPLSIQWHWRPWTPCKMFAQRSLRRRQQQDLMPQCRDWRAVTTQDAVNPIESLDTWTEFVEGKNKTVSKLVIQNANVSAMYKCVVSNKVGQDERLIYFYVTTIPDGFTIESKPSEELLEGQPVLLSCQADSYKYEHLRWYRLNLSTLHDAHGNPLLLDCKNVHLFATPLAASLEEVAPGARHATLSLSIPRVAPEHEGHYVCEVQDRRSHDKHCHKKYLSVQALEAPRLTQNLTDLLVNVSDSLEMQCLVAGAHAPSIVWYKDERLLEEKSGVDLADSNQKLSIQRVREEDAGRYLCSVCNAKGCVNSSASVAVEGSEDKGSMEI
modifications: left off: a dimerising Fc or GST
notes: human VEGFR-3-Fc chimera
B1: the “% inhibition of Gal-8-induced LEC sprouting” value in assay [1] (Gal-8 0.75 μM, 10 μg/ml, 24 hours) is on record as 37%. Further, the “effect on VEGF-C-induced LEC sprouting (in words)” value in assay [2] was “inhibited”.
